Laboratory results as given in US20220218852A1, “NOVEL RADIOLABELLED CXCR4-TARGETING COMPOUNDS FOR DIAGNOSIS AND THERAPY” (PROVINCIAL HEALTH SERVICES AUTHORITY, priority 2019, published 2022).
Like-named read-outs stand apart in the source and are kept apart here. Positions of bridges follow the written chain, without caps; N, C: chain ends. Non-standard residues stand in square brackets, D forms with d. Residues, ends and D or L forms follow the SMILES beside them. Groups on a side chain read outwards from the residue. *: point of attachment. X1 = O=C(O)CC[C@H](NC(=O)CN1CCN(CC(=O)O)CCN(CC(=O)O)CCN(CC(=O)O)CC1)C(=O)N[C@@H](CCCCNC(=O)CNC(=O)CCCc1ccc(F)cc1)C(=O)*; X2 = Cc1ccc(CCCC(=O)NCC(=O)NCCCC[C@H](NC(=O)[C@H](CCC(=O)O)NC(=O)CN2CCN(CC(=O)O)CCN(CC(=O)O)CCN(CC(=O)O)CC2)C(=O)*)cc1; 2Nal = N[C@@H](Cc1ccc2ccccc2c1)C(=O)O; Lys(iPr) = CC(C)NCCCC[C@H](N)C(=O)O

Assays:
[1] = test system: Daudi Burkitt's lymphoma xenografts; experiment: Biodistribution in Daudi tumor-bearing mice; assay type: in vivo; settings: for Ratio Tumor: Blood / Ratio Tumor: Bone / Ratio Tumor: Liver / Ratio Tumor: Lung / Ratio Tumor: Muscle / Ratio Tumor: Spleen: Daudi tumor-bearing mice, 3 h; for Ratio Tumour:Blood / Ratio Tumour:Bone / Ratio Tumour:Liver / Ratio Tumour:Lung / Ratio Tumour:Muscle / Ratio Tumour:Spleen: Daudi xenograft bearing mice, 1 h
Description: (§1) For Daudi, Z138, GRANTA519 and Jeko1 xenografts, male NOD.Cg-Rag1^tm1MomII2rg^tm1Wjl/SzJ (NRG) mice were subcutaneously inoculated on the left flank with 5×10^6 cells (100 μL; 1:1 ratio of PBS/Matrigel) and tumors were grown to a size of 200-500 mm^3. For PC-3 xenografts, male NOD.Cg-Rag1^tm1MomII2rg^tm1Wjl/SzJ (NRG) mice were subcutaneously inoculated on the left flank with 5×10^6 PC-3 cells (100 μL; 1:1 ratio of PBS/Matrigel) and tumors were grown to a size of 200-400 mm^3.
(§2) The mice were euthanized via CO2 inhalation while anesthetized with isoflurane. Tissues were harvested, washed in PBS, blotted dry, weighed, and measured on a Hidex AMG Automatic Gamma Counter.

[2] = Biodistribution in Daudi tumor-bearing mice; assay type: in vivo; settings: male, NOD.Cg-Rag1^tm1MomII2rg^tm1Wjl/SzJ (NRG), mouse, iv, total radioactivity; for tissue uptake at 3 h: Daudi tumor-bearing mice; for tissue uptake at 1 h: Daudi xenograft bearing mice
Description: as §1, §2

[3] = Daudi tumor, read-out: Biodistribution Daudi (tumor)
[4] = Daudi tumour, read-out: Biodistribution Daudi (tumour)
[5] = adrenals, read-out: Biodistribution Adrenals
[6] = blood, read-out: Biodistribution Blood
[7] = bone, read-out: Biodistribution Bone
[8] = brain, read-out: Biodistribution Brain
[9] = fat, read-out: Biodistribution Fat
[10] = heart, read-out: Biodistribution Heart
[11] = intestine, read-out: Biodistribution Intestine
[12] = kidney, read-out: Biodistribution Kidney
[13] = liver, read-out: Biodistribution Liver
[14] = lung, read-out: Biodistribution Lung
[15] = muscle, read-out: Biodistribution Muscle
[16] = pancreas, read-out: Biodistribution Pancreas
[17] = spleen, read-out: Biodistribution Spleen
[18] = stomach, read-out: Biodistribution Stomach
[19] = testes, read-out: Biodistribution Testes

CC(C)NCCCC[C@@H]1NC(=O)[C@H](Cc2ccc(O)cc2)NC(=O)[C@H](Cc2ccccc2)NC(=O)CC[C@H](C(=O)N[C@@H](CCCCNC(C)C)C(=O)N[C@@H](CCCCNC(=O)[C@H](CCC(=O)O)NC(=O)[C@H](CCCCNC(=O)CNC(=O)CCCc2ccc(F)cc2)NC(=O)[C@H](CCC(=O)O)NC(=O)CN2CCN(CC(=O)O)CCN(CC(=O)O)CCN(CC(=O)O)CC2)C(N)=O)NC(=O)CNC(=O)[C@H](Cc2ccc3ccccc3c2)NC(=O)[C@@H](CCCNC(=N)N)NC1=O [[^68Ga]Ga-BL27, metal not drawn] (FY[Lys(iPr)][dR][2Nal]G[dE][Lys(iPr)]K([Glu-X1])-NH2; lactam N-7)
Ratio Tumor: Blood [1]: 10.85 | Ratio Tumor: Bone [1]: 38.31 | Ratio Tumor: Liver [1]: 3.91 | Ratio Tumor: Lung [1]: 5.59 | Ratio Tumor: Muscle [1]: 83.68 | Ratio Tumor: Spleen [1]: 10.08 | Ratio Tumour:Blood [1]: 1.99 | Ratio Tumour:Bone [1]: 13.68 | Ratio Tumour:Liver [1]: 3.46 | Ratio Tumour:Lung [1]: 1.27 | Ratio Tumour:Muscle [1]: 21.47 | Ratio Tumour:Spleen [1]: 3.37 | tissue uptake at 3 h [2, 3]: 10.4 %ID/g | tissue uptake at 1 h [2, 4]: 8.78 %ID/g | tissue uptake at 3 h [2, 5]: 0.58 %ID/g | tissue uptake at 1 h [2, 5]: 1.66 %ID/g | tissue uptake at 3 h [2, 6]: 0.95 %ID/g | tissue uptake at 1 h [2, 6]: 4.6 %ID/g | tissue uptake at 3 h [2, 7]: 0.27 %ID/g | tissue uptake at 1 h [2, 7]: 0.66 %ID/g | tissue uptake at 3 h [2, 8]: 0.03 %ID/g | tissue uptake at 1 h [2, 8]: 0.07 %ID/g | tissue uptake at 3 h [2, 9]: 0.09 %ID/g | tissue uptake at 1 h [2, 9]: 0.35 %ID/g | tissue uptake at 3 h [2, 10]: 0.32 %ID/g | tissue uptake at 1 h [2, 10]: 1.27 %ID/g | tissue uptake at 3 h [2, 11]: 0.36 %ID/g | tissue uptake at 1 h [2, 11]: 0.85 %ID/g | tissue uptake at 3 h [2, 12]: 4.77 %ID/g | tissue uptake at 1 h [2, 12]: 6.21 %ID/g | tissue uptake at 3 h [2, 13]: 2.64 %ID/g | tissue uptake at 1 h [2, 13]: 2.61 %ID/g | tissue uptake at 3 h [2, 14]: 2.1 %ID/g | tissue uptake at 1 h [2, 14]: 7.23 %ID/g | tissue uptake at 3 h [2, 15]: 0.13 %ID/g | tissue uptake at 1 h [2, 15]: 0.43 %ID/g | tissue uptake at 3 h [2, 16]: 0.26 %ID/g | tissue uptake at 1 h [2, 16]: 0.62 %ID/g | tissue uptake at 3 h [2, 17]: 1.06 %ID/g | tissue uptake at 1 h [2, 17]: 2.82 %ID/g | tissue uptake at 3 h [2, 18]: 0.12 %ID/g | tissue uptake at 1 h [2, 18]: 0.19 %ID/g | tissue uptake at 3 h [2, 19]: 0.31 %ID/g | tissue uptake at 1 h [2, 19]: 0.8 %ID/g

Cc1ccc(CCCC(=O)NCC(=O)NCCCC[C@H](NC(=O)[C@H](CCC(=O)O)NC(=O)CN2CCN(CC(=O)O)CCN(CC(=O)O)CCN(CC(=O)O)CC2)C(=O)N[C@@H](CCC(=O)O)C(=O)NCCCC[C@H](NC(=O)[C@H](CCCCNC(C)C)NC(=O)[C@H]2CCC(=O)N[C@@H](Cc3ccccc3)C(=O)N[C@@H](Cc3ccc(O)cc3)C(=O)N[C@@H](CCCCNC(C)C)C(=O)N[C@H](CCCNC(=N)N)C(=O)N[C@@H](Cc3ccc4ccccc4c3)C(=O)NCC(=O)N2)C(N)=O)cc1 [[^68Ga]Ga-BL28, metal not drawn] (FY[Lys(iPr)][dR][2Nal]G[dE][Lys(iPr)]K([Glu-X2])-NH2; lactam N-7)
Ratio Tumor: Blood [1]: 0.68 | Ratio Tumor: Bone [1]: 8.55 | Ratio Tumor: Liver [1]: 2.71 | Ratio Tumor: Lung [1]: 1.46 | Ratio Tumor: Muscle [1]: 10.49 | Ratio Tumor: Spleen [1]: 3.38 | Ratio Tumour:Blood [1]: 0.31 | Ratio Tumour:Bone [1]: 4.12 | Ratio Tumour:Liver [1]: 1.59 | Ratio Tumour:Lung [1]: 0.65 | Ratio Tumour:Muscle [1]: 4.82 | Ratio Tumour:Spleen [1]: 2.08 | tissue uptake at 3 h [2, 3]: 7.82 %ID/g | tissue uptake at 1 h [2, 4]: 4.59 %ID/g | tissue uptake at 3 h [2, 5]: 2.46 %ID/g | tissue uptake at 1 h [2, 5]: 2.53 %ID/g | tissue uptake at 3 h [2, 6]: 11.6 %ID/g | tissue uptake at 1 h [2, 6]: 14.7 %ID/g | tissue uptake at 3 h [2, 7]: 0.94 %ID/g | tissue uptake at 1 h [2, 7]: 1.14 %ID/g | tissue uptake at 3 h [2, 8]: 0.17 %ID/g | tissue uptake at 1 h [2, 8]: 0.19 %ID/g | tissue uptake at 3 h [2, 9]: 0.56 %ID/g | tissue uptake at 1 h [2, 9]: 0.64 %ID/g | tissue uptake at 3 h [2, 10]: 2.29 %ID/g | tissue uptake at 1 h [2, 10]: 3.21 %ID/g | tissue uptake at 3 h [2, 11]: 1 %ID/g | tissue uptake at 1 h [2, 11]: 1.21 %ID/g | tissue uptake at 3 h [2, 12]: 4.76 %ID/g | tissue uptake at 1 h [2, 12]: 5.41 %ID/g | tissue uptake at 3 h [2, 13]: 2.92 %ID/g | tissue uptake at 1 h [2, 13]: 2.92 %ID/g | tissue uptake at 3 h [2, 14]: 5.35 %ID/g | tissue uptake at 1 h [2, 14]: 7.11 %ID/g | tissue uptake at 3 h [2, 15]: 0.76 %ID/g | tissue uptake at 1 h [2, 15]: 0.96 %ID/g | tissue uptake at 3 h [2, 16]: 1.21 %ID/g | tissue uptake at 1 h [2, 16]: 1.49 %ID/g | tissue uptake at 3 h [2, 17]: 2.34 %ID/g | tissue uptake at 1 h [2, 17]: 2.21 %ID/g | tissue uptake at 3 h [2, 18]: 0.38 %ID/g | tissue uptake at 1 h [2, 18]: 0.47 %ID/g | tissue uptake at 3 h [2, 19]: 2.05 %ID/g | tissue uptake at 1 h [2, 19]: 1.73 %ID/g
